Data taken from article PMC7248897, “Synthesis, Biological Evaluation and In Silico Studies of Certain Oxindole–Indole Conjugates as Anticancer CDK Inhibitors” (Molecules, 2020).

Experiments:
[1] = biological target: T1, CDK4 (Homo sapiens, UniProt P11802); assay: CDK4 kinase inhibition (Reaction Biology HotSpot); assay type: biochemical; details: for inhibition at 20 µM: single dose of 20 µM
T1 construct: purchased Reaction Biology Corp. (Kinase HotSpot service)
From the text: (§1) 5. CDK Kinase Inhibitory Activity
(§2) along with required cofactors.
(§3) Kinase activity data were
(§4) (dimethyl sulfoxide) reactions.

[2] = test system: MCF-7 cells; assay: Annexin V-FITC apoptosis assay; assay type: cell-based, human; details: for fold increase of entire apoptosis percentage: MCF-7, in comparison to the control (DMSO); for percent of Anx V-FITC positive cells (entire apoptosis): MCF-7 cells treated at IC50
Protocol: Anx V-based flow cytometry assay represents a helpful tactic for determining whether death of cells is attributed to programmed apoptosis or to uncontrolled necrosis.
This clearly verifies that cell death resulting from the anti-proliferative action of the target hybrids was attributable to physiological apoptosis and not to nonspecific necrosis.
Assessment of the levels for the proapoptotic markers (Bax, caspase-3, and p53) as well as the antiapoptotic marker (Bcl-2) was carried out through the use of ELISA colorimetric kits in accordance with the manufacturer’s instructions, as mentioned earlier. In addition, the pro-apoptotic potential of indoles 6e and 6f towards MCF-7 cells was evaluated through an FITC Annexin V apoptosis detection kit by flow cytometry, in accordance with the manufacturer’s protocol and referring to the reported procedures. […]
4. Annexin V-FITC Apoptosis Assay
Phosphatidylserine externalization was assayed using Annexin V-FITC/PI apoptosis detection kit (BD Biosciences, USA) according to the manufacturer’s instructions. Breast cancer MCF-7 cells were cultured to a monolayer then treated with hybrids 6e and 6f at their IC50 concentration. Briefly, cells were then harvested via trypsinization, and rinsed twice in PBS followed by binding buffer. Moreover, cells were re-suspended in 100 μL of binding buffer with the addition of 1 μL of FITC-Annexin V followed by an incubation period of 30 min at 4 °C. Cells were then rinsed in binding buffer and resuspended in 150 μL of binding buffer with the addition of 1 μL of DAPI (1 μg/μL in PBS). Cells were then analyzed using the flow cytometer BD FACS Canto II and the results were interpreted with FlowJo7.6.4 software (Tree Star, Ashland, OR, USA).

[3] = biological target: CDK9 (Homo sapiens, UniProt P50750); assay: CDK9 kinase inhibition (Reaction Biology HotSpot); details: read-out: % Enzyme Inhibitory Activity CDK9
Protocol: The in vitro CDK kinase inhibition assay was performed by Reaction Biology Corp. (PA, USA) (http://www.reactionbiology.com) Kinase HotSpotSM service.
Reaction Biology Corp. Kinase HotSpotSM service (http://www.reactionbiology.com)
was used for screening of tested compounds. CDK Kinase inhibitory activities were
assessed by the HotSpot assay platform, which contained specific kinase/substrate pairs
along with required cofactors. Base reaction buffer: 20 mM Hepes (pH 7.5), 10 mM MgCl2,
Testing compounds were dissolved in 100% DMSO to specific concentration. The serial
dilution was conducted by Integra Viaflo Assist in DMSO. The reaction mixture containing the examined compound and 33P-ATP was incubated at room temperature for
2 h and radioactivity was detected by filter-binding method. Kinase activity data were
expressed as the percent remaining kinase activity in test samples compared to vehicle

[4] = test system: MCF-7 breast cancer cell line; assay: SRB anti-proliferative assay, MCF-7; assay type: cell-based, human; details: for IC50: Homo sapiens, MCF7, SRB assay, 48 h, mean ± S.D. from 3 separate experiments, read-out: IC50 MCF-7; for fold enhancement of anti-proliferative activity compared to 6a: MCF-7, ratio of IC50 values
Protocol: Cytotoxicity was assessed following the SRB colorimetric assay protocol, as reported earlier.
1. Anti-proliferative action toward human breast cell lines […]
have been obtained from American Type Culture Collection (ATCC). The cells were maintained in Dulbecco's modified Eagle's medium (DMEM) supplemented with 10% heat inactivated fetal calf serum (GIBCO), penicillin (100 U/ml) and streptomycin (100 µg/ml) at 37 °C in humidified atmosphere containing 5% CO2. Cells at a concentration of […]
The anti-proliferative activity of the tested hybrids 6a-i, 9a-f and 11a, b was measured in vitro using the Sulfo-Rhodamine-B stain (SRB) assay. Briefly, Cells were inoculated in 96-well microtiter plate (5X104 cells/ well) for 24 h before treatment with the tested compounds to allow attachment of cell to the wall of the plate. Tested compounds were dissolved in DMSO at 1 mg/ml immediately before use and diluted to the appropriate volume just before addition to the cell culture. Different concentrations of tested compounds, doxorubicin and sorafenib were added to the cells (three wells were prepared for each individual dose). Cells were incubated with the compounds for 48 h at 37°C and in atmosphere of 5% CO2. After 48 h cells were fixed, washed, and stained for 30 min with 0.4% (w/v) SRB dissolved in 1% acetic acid. Unbound dye was removed by four washes with 1% acetic acid, and attached stain was recovered with Tris-EDTA buffer.
Color intensity was measured in an ELISA reader. […]

[5] = test system: Bax/Bcl-2; assay: Bax/Bcl-2 ratio in MCF-7 cells; assay type: cell-based, human; details: for fold increase of Bax/Bcl-2 ratio: MCF-7, vs control; for Bax/Bcl-2: MCF-7 cells treated at IC50, control 8.2
Protocol: (§5) Homogeneously, both conjugates were able to decrease the level of the anti-apoptotic Bcl-2 protein by 2.12-, and 1.7-fold, respectively (Table 3). As a more analytical variable, the Bax/Bcl-2 ratio was verified to be amplified by conjugates 6e and 6f, 18- and 12-fold, respectively.
(§6) Assessment of the levels for the proapoptotic markers (Bax, caspase-3, and p53) as well as the antiapoptotic marker (Bcl-2) was carried out through the use of ELISA colorimetric kits in accordance with the manufacturer’s instructions, as mentioned earlier. In addition, the pro-apoptotic potential of indoles 6e and 6f towards MCF-7 cells was evaluated through an FITC Annexin V apoptosis detection kit by flow cytometry, in accordance with the manufacturer’s protocol and referring to the reported procedures.
(§7) The levels of the pro-apoptotic markers (Bax, caspase-3 and p53) as well as the anti-apoptotic marker Bcl-2 were determined using ELISA colorimetric kits per the manufacturer’s instructions. Breast cancer MCF-7 cells were cultured as a monolayer in T-25 flasks and were seeded to attain 30% confluency prior to treatment. Cells were then […]
(§8) of treatment, cells were collected via trypsinization and centrifuged at 10,000 rpm. The pellet was then rinsed with PBS and lysed in RIPA lysis buffer at 4 °C for 45 min, then centrifuged at 14,000 rpm for 20 min to remove the cellular debris. Lysates were then collected and stored at −80 °C for later protein determination using Pierce BCA Protein Assay Kit according to manufacturer’s recommendations.
(§9) The cell lysate was diluted 10 times, and 100 μL ([…]) was added to the wells of four separate microtiter plates for the four ELISA kits that were pre-coated with primary antibodies specific to Bax, Bcl-2, caspase-3 and p53 proteins, respectively. A secondary biotin-linked antibody specific to the protein captured by the primary antibody was further added to bind the captured protein, forming a “sandwich” of specific antibodies around the desired protein in the cell lysate. The streptavidin-HRP complex was then used to bind the biotin-linked secondary antibody through its streptavidin portion. The HRP domain reacted with the added TMB substrate to form a colored product that measured at 450 nm by a plate reader ChroMate-4300 after the reaction was terminated via the addition of stop solution. […]
(§10) Cells were then rinsed in binding buffer and resuspended in 150
(§11) μL of binding buffer with the addition of 1 μL of DAPI (1 μg/μL in PBS). […]

[6] = test system: p53; assay: ELISA of p53 level in MCF-7 cells; assay type: cell-based, human; details: for fold increase of p53 level: MCF-7, as compared to the control; for p53: MCF-7 cells treated at IC50, 48 h, control 41.26 ± 2.7
Protocol: In addition, their influence on the level of caspase-3 and p53 was estimated in the MCF-7 cell line.
as §6, §7, §8, §9, §10, §11

[7] = test system: Bcl-2; assay: ELISA of Bcl-2 level in MCF-7 cells; assay type: cell-based, human; details: for fold decrease of Bcl-2 level: MCF-7, vs control; for Bcl-2: MCF-7 cells treated at IC50, 48 h, control 4.65 ± 0.23
Protocol: as §5, §6, §7, §8, §9, §10, §11

[8] = test system: Bax; assay: ELISA of Bax level in MCF-7 cells; assay type: cell-based, human; details: for fold increase of Bax level: MCF-7, vs control; for Bax: MCF-7 cells treated at IC50, 48 h, control 38.3 ± 2.2
Protocol: as §5, §6, §7, §8, §9, §10, §11

[9] = biological target: T2, CDK2 (Homo sapiens, UniProt P24941); assay: CDK2 kinase inhibition (Reaction Biology HotSpot); assay type: biochemical; details: single dose of 20 µM; read-out: % Enzyme Inhibitory Activity CDK2
T2 construct: purchased Reaction Biology Corp. (Kinase HotSpot service)
From the text: as §1, §2, §3, §4

T1 sequence (P11802 whole entry): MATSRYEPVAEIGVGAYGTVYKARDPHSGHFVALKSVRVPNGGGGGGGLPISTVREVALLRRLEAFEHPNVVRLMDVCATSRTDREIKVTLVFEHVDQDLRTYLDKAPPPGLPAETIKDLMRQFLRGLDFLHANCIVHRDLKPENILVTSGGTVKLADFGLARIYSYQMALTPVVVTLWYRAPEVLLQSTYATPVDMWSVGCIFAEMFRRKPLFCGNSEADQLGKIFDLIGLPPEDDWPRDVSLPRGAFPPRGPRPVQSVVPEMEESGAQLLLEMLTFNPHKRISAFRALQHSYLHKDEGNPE
T1 sequence (P24385 whole entry partner): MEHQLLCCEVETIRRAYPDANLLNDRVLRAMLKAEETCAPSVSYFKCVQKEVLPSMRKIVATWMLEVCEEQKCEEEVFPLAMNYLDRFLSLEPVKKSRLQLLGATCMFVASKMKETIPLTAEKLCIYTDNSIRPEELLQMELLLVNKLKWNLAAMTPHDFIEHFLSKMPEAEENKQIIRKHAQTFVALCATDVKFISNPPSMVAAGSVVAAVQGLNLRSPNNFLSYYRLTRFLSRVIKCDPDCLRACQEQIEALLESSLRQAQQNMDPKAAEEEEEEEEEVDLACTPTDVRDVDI
Sequence of CDK9 (P50750 whole entry): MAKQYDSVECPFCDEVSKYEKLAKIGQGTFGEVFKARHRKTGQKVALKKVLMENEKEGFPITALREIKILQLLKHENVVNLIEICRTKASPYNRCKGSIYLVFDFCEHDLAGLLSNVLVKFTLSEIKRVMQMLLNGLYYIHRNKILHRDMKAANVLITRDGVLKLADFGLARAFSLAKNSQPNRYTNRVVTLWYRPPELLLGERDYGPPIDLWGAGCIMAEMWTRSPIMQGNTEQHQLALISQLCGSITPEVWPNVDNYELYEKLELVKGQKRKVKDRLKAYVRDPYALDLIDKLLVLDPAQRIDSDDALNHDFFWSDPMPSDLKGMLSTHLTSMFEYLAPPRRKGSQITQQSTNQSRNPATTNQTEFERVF
Sequence of CDK9 (O60563 whole entry partner): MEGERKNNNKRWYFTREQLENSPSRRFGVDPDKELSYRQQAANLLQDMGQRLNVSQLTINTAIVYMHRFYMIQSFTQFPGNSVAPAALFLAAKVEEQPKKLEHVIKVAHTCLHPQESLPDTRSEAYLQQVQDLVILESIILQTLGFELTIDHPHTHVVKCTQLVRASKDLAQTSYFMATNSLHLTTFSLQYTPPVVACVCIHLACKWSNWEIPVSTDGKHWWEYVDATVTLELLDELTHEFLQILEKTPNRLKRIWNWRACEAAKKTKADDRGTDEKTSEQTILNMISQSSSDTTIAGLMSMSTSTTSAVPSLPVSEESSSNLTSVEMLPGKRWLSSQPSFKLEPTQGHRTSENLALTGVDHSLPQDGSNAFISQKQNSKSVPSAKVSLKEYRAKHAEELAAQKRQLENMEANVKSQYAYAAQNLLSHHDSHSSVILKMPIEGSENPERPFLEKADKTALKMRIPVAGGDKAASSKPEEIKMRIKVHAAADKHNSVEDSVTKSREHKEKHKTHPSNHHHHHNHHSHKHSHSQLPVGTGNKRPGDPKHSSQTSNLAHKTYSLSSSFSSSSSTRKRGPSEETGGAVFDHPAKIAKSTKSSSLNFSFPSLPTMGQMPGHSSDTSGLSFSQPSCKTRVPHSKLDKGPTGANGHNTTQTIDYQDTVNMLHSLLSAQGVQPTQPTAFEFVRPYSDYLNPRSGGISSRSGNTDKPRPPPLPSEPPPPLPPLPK

Row | IC50 [1] [nM] | inhibition at 20 µM [1] [%] | inhibition at 20 µM [3] [%] | IC50 [4] [nM] | inhibition at 20 µM [9] [%] | Structure (SMILES) | fold increase of entire apoptosis percentage [2] [fold] | percent of Anx V-FITC positive cells (entire apoptosis) [2] [%] | fold enhancement of anti-proliferative activity compared to 6a [4] [fold] | fold increase of Bax/Bcl-2 ratio [5] [fold] | Bax/Bcl-2 [5] | fold increase of p53 level [6] [fold] | p53 [6] [pg/mg] | fold decrease of Bcl-2 level [7] [fold] | Bcl-2 [7] | fold increase of Bax level [8] [fold] | Bax [8]
1 | 1260 | 93 | 18 | 390 ± 50 | ≥ 50 | Cc1ccc2c(c1)/C(=N/NC(=O)c1cc3ccccc3[nH]1)C(=O)N2 [6e] | 33.75 | 29.7 | 8 | 18 | 148.5 | 17 | 704.39 ± 32.8 | 2.12 | 2.19 ± 0.10 ng/mg of Total Protein | 8.5 | 325.3 ± 12.1 pg/mg of Total Protein
2 | – | 14 | 8 | 1850 ± 80 | ≥ 50 | COc1ccc2c(c1)/C(=N/NC(=O)c1cc3ccccc3[nH]1)C(=O)N2 [6f] | 28.60 | 25.17 | 1.7 | 12 | 98.6 | 13.3 | 547.60 ± 29.5 | 1.7 | 2.73 ± 0.13 ng/mg of Total Protein | 7 | 268.7 ± 9.5 pg/mg of Total Protein
